Test results published in PubChem BioAssay AID1918954 (Molecular Pharmacology Branch, DTP, NCI, 2023).
Values joined by “and” are separate entries in the source; they are usually repeats but may differ in a detail not shown here. Equal values may be shown once.

Tested on: MDA-MB-468 complex spheroids with HUVEC/MSC, viability
Assay: Anticancer human tumor MDA-MB-468 cell line growth inhibition;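 note: spheroids exposed to agents for seven days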;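 for viability, T/C: 100% = DMSO vehicle control viability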
Details: for viability, T/C: stronger effect = lower value
Summary of the method: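 Drug combinations with the LSD1 inhibitor iadademstat tested on tumor cells co-cultured as spheroids with endothelial cells and mesenchymal stem cells. Concentrations descended in half-log increments from clinical Cmax or 10 microM.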

[1] = curve of first compound, second compound 0.1 µM
[2] = curve of first compound, second compound 0.316 µM
[3] = curve of first compound, second compound 1 µM
[4] = curve of first compound, second compound 3.16 µM
[5] = curve of first compound, second compound 10 µM
[6] = second compound 0.1 µM, first compound 0.0316 µM
[7] = second compound 0.1 µM, first compound 0.1 µM
[8] = second compound 0.316 µM, first compound 0.0316 µM
[9] = second compound 0.316 µM, first compound 0.1 µM
[10] = second compound 1 µM, first compound 0.0316 µM
[11] = second compound 1 µM, first compound 0.1 µM
[12] = second compound 3.16 µM, first compound 0.0316 µM
[13] = second compound 3.16 µM, first compound 0.1 µM
[14] = second compound 10 µM, first compound 0.0316 µM
[15] = second compound 10 µM, first compound 0.1 µM
[16] = second compound 0.1 µM, first compound 0.000316 µM
[17] = second compound 0.1 µM, first compound 0.001 µM
[18] = second compound 0.1 µM, first compound 0.00316 µM
[19] = second compound 0.1 µM, first compound 0.01 µM
[20] = second compound 0.316 µM, first compound 0.000316 µM
[21] = second compound 0.316 µM, first compound 0.001 µM
[22] = second compound 0.316 µM, first compound 0.00316 µM
[23] = second compound 0.316 µM, first compound 0.01 µM
[24] = second compound 1 µM, first compound 0.000316 µM
[25] = second compound 1 µM, first compound 0.001 µM
[26] = second compound 1 µM, first compound 0.00316 µM
[27] = second compound 1 µM, first compound 0.01 µM
[28] = second compound 3.16 µM, first compound 0.000316 µM
[29] = second compound 3.16 µM, first compound 0.001 µM
[30] = second compound 3.16 µM, first compound 0.00316 µM
[31] = second compound 3.16 µM, first compound 0.01 µM
[32] = second compound 10 µM, first compound 0.000316 µM
[33] = second compound 10 µM, first compound 0.001 µM
[34] = second compound 10 µM, first compound 0.00316 µM
[35] = second compound 10 µM, first compound 0.01 µM

`COc1cc(C2c3cc4c(cc3C(OC3OC5COC(C)OC5C(O)C3O)C3COC(=O)C23)OCO4)cc(OC)c1O` (configuration not stated) + NC1CC1c1ccc(-c2cccc(O)c2)cc1 was tested, and the IC50 [1] was 57.7 nM, the IC50 [2] was 50.8 nM and the IC50 [3] was 45.5 nM. The IC50 [4] was 47.2 nM, the IC50 [5] was 21 nM and the viability, T/C (second compound 0.1 µM, first compound 0.00949 µM) was 88.3%. For the same compound, the viability, T/C (second compound 0.1 µM, first compound 0.03 µM) was 79.1%, the viability, T/C (second compound 0.1 µM, first compound 0.0949 µM) was 27.5% and the viability, T/C (second compound 0.1 µM, first compound 0.3 µM) was 13%. The viability, T/C (second compound 0.1 µM, first compound 0.949 µM) was 7.49%, the viability, T/C (second compound 0.1 µM, first compound 3 µM) was 3.87% and the viability, T/C (second compound 0.316 µM, first compound 0.00949 µM) was 107%. It also gave a viability, T/C (second compound 0.316 µM, first compound 0.03 µM) of 69.9%, a viability, T/C (second compound 0.316 µM, first compound 0.0949 µM) of 26% and a viability, T/C (second compound 0.316 µM, first compound 0.3 µM) of 11.5%. It also gave a viability, T/C (second compound 0.316 µM, first compound 0.949 µM) of 7.32%, a viability, T/C (second compound 0.316 µM, first compound 3 µM) of 3.63% and a viability, T/C (second compound 1 µM, first compound 0.00949 µM) of 90%. The viability, T/C (second compound 1 µM, first compound 0.03 µM) was 64.2%, the viability, T/C (second compound 1 µM, first compound 0.0949 µM) was 24.7% and the viability, T/C (second compound 1 µM, first compound 0.3 µM) was 11.3%. For the same compound, the viability, T/C (second compound 1 µM, first compound 0.949 µM) was 6.82%, the viability, T/C (second compound 1 µM, first compound 3 µM) was 3.4% and the viability, T/C (second compound 3.16 µM, first compound 0.00949 µM) was 89.8%. The viability, T/C (second compound 3.16 µM, first compound 0.03 µM) was 68.7%, the viability, T/C (second compound 3.16 µM, first compound 0.0949 µM) was 21% and the viability, T/C (second compound 3.16 µM, first compound 0.3 µM) was 11%. For the same compound, the viability, T/C (second compound 3.16 µM, first compound 0.949 µM) was 6.58%, the viability, T/C (second compound 3.16 µM, first compound 3 µM) was 3.35% and the viability, T/C (second compound 10 µM, first compound 0.00949 µM) was 68.2%. The viability, T/C (second compound 10 µM, first compound 0.03 µM) was 42.8%, the viability, T/C (second compound 10 µM, first compound 0.0949 µM) was 15.8% and the viability, T/C (second compound 10 µM, first compound 0.3 µM) was 14.5%. For the same compound, the viability, T/C (second compound 10 µM, first compound 0.949 µM) was 8.05% and the viability, T/C (second compound 10 µM, first compound 3 µM) was 3.42%.

With `CC1(C)CCC(CN2CCN(c3ccc(C(=O)NS(=O)(=O)c4ccc(NCC5CCOCC5)c([N+](=O)[O-])c4)c(Oc4cnc5[nH]ccc5c4)c3)CC2)=C(c2ccc(Cl)cc2)C1` + NC1CCC(NC2CC2c2ccccc2)CC1 the IC50 [1] was 5550 nM, the IC50 [2] was 5700 nM and the IC50 [3] was 3810 nM. For the same compound, the IC50 [4] was 4460 nM, the IC50 [5] was 4240 nM and the viability, T/C [6] was 92.8%. The viability, T/C [7] was 87%, the viability, T/C (second compound 0.1 µM, first compound 0.316 µM) was 103% and the viability, T/C (second compound 0.1 µM, first compound 1 µM) was 98.6%. For the same compound, the viability, T/C (second compound 0.1 µM, first compound 3.16 µM) was 70%, the viability, T/C (second compound 0.1 µM, first compound 10 µM) was 29.1% and the viability, T/C [8] was 99.8%. The viability, T/C [9] was 119%, the viability, T/C (second compound 0.316 µM, first compound 0.316 µM) was 128% and the viability, T/C (second compound 0.316 µM, first compound 1 µM) was 87.6%. For the same compound, the viability, T/C (second compound 0.316 µM, first compound 3.16 µM) was 78%, the viability, T/C (second compound 0.316 µM, first compound 10 µM) was 26.4% and the viability, T/C [10] was 73.9%. For the same compound, the viability, T/C [11] was 113%, the viability, T/C (second compound 1 µM, first compound 0.316 µM) was 94.8% and the viability, T/C (second compound 1 µM, first compound 1 µM) was 79.1%. It also gave a viability, T/C (second compound 1 µM, first compound 3.16 µM) of 54%, a viability, T/C (second compound 1 µM, first compound 10 µM) of 34.8% and a viability, T/C [12] of 87.9%. The viability, T/C [13] was 95.5%, the viability, T/C (second compound 3.16 µM, first compound 0.316 µM) was 78.1% and the viability, T/C (second compound 3.16 µM, first compound 1 µM) was 76.6%. The viability, T/C (second compound 3.16 µM, first compound 3.16 µM) was 61.2%, the viability, T/C (second compound 3.16 µM, first compound 10 µM) was 27.2% and the viability, T/C [14] was 71.2%. For the same compound, the viability, T/C [15] was 68.7%, the viability, T/C (second compound 10 µM, first compound 0.316 µM) was 67.1% and the viability, T/C (second compound 10 µM, first compound 1 µM) was 65.3%. It also gave a viability, T/C (second compound 10 µM, first compound 3.16 µM) of 58.1% and a viability, T/C (second compound 10 µM, first compound 10 µM) of 27.8%.

Compound `CC(C)CC(NC(=O)CNC(=O)c1cc(Cl)ccc1Cl)B1OC(=O)CC(CC(=O)O)(C(=O)O)O1` (configuration not stated) + NC1CCC(NC2CC2c2ccccc2)CC1 has an IC50 [1] of 3.9 nM, an IC50 [2] of 3.97 nM and an IC50 [3] of 3.33 nM. It also gave an IC50 [4] of 4.4 nM, an IC50 [5] of 2.99 nM and a viability, T/C [16] of 110%. It also gave a viability, T/C [17] of 115%, a viability, T/C [18] of 59.5% and a viability, T/C [19] of 8.34%. The viability, T/C [6] was 1.37%, the viability, T/C [7] was 1.7% and the viability, T/C [20] was 98.6%. The viability, T/C [21] was 99.2%, the viability, T/C [22] was 60.4% and the viability, T/C [23] was 7.32%. The viability, T/C [8] was 2.63%, the viability, T/C [9] was 1.14% and the viability, T/C [24] was 89.9%. For the same compound, the viability, T/C [25] was 118%, the viability, T/C [26] was 52.1% and the viability, T/C [27] was 9.33%. It also gave a viability, T/C [10] of 1.32%, a viability, T/C [11] of 1.76% and a viability, T/C [28] of 72.7%. The viability, T/C [29] was 101%, the viability, T/C [30] was 67% and the viability, T/C [31] was 7.42%. The viability, T/C [12] was 1.53%, the viability, T/C [13] was 1.59% and the viability, T/C [32] was 80.6%. It also gave a viability, T/C [33] of 65.4%, a viability, T/C [34] of 50.3% and a viability, T/C [35] of 4.74%. For the same compound, the viability, T/C [14] was 2.13% and the viability, T/C [15] was 2.15%.

`CC(C)CC(NC(=O)C(Cc1ccccc1)NC(=O)c1cnccn1)B(O)O` (configuration not stated) was tested, and the viability, T/C (compound 0.00316 µM) was 0.95% and 0.15%, the viability, T/C (compound 0.01 µM) was 1.2% and 0.15% and the viability, T/C (compound 0.0316 µM) was 1.22% and 0.17%. The viability, T/C (compound 0.1 µM) was 1.51% and 0.22% and the IC50 (curve of compound) was 0.684 nM and < 0.316 nM.

`NC1CC1c1ccc(-c2cccc(O)c2)cc1` (configuration not stated) showed an IC50 (compound alone, run of 02/01/2022) greater than 10000 nM.

`NC1CCC(NC2CC2c2ccccc2)CC1` (configuration not stated) was tested, and the viability, T/C (compound 0.316 µM) was 96.4% and 88.1% and 98.6% and the IC50 (compound alone, run of 01/24/2022) was > 10000 nM and 9570 nM.

`Nc1ccccc1NC(=O)c1ccc(CNC(=O)OCc2cccnc2)cc1` was tested, and the viability, T/C (compound 0.00949 µM) was 98.7% and 100%, the viability, T/C (compound 0.03 µM) was 99.5% and 103% and the viability, T/C (compound 0.0949 µM) was 70.2% and 36.1%. The viability, T/C (compound 0.3 µM) was 14.8% and 2.86%, the viability, T/C (compound 0.949 µM) was 3.01% and 0.37% and the viability, T/C (compound 3 µM) was 1.7% and 0.2%. For the same compound, the IC50 (curve of compound) was 145 nM and 74.3 nM.

For `O=C(c1cc(Cc2n[nH]c(=O)c3ccccc23)ccc1F)N1CCN(C(=O)C2CC2)CC1`, the viability, T/C (compound 0.0316 µM) was 94.3% and 76.8%, the viability, T/C (compound 0.1 µM) was 73.5% and 79.1% and the viability, T/C (compound 0.316 µM) was 75% and 69.3%. The viability, T/C (compound 1 µM) was 52.9% and 52.6%, the viability, T/C (compound 3.16 µM) was 21.7% and 20.2% and the viability, T/C (compound 10 µM) was 22.6% and 21.4%. The IC50 (curve of compound) was 989 nM and 1050 nM.

`CC(C)CC(NC(=O)C(Cc1ccccc1)NC(=O)c1cnccn1)B(O)O` (configuration not stated) + NC1CCC(NC2CC2c2ccccc2)CC1 showed an IC50 [1] of 0.699 nM, an IC50 [2] of 0.592 nM and an IC50 [3] of 0.642 nM. It also gave an IC50 [4] of 0.646 nM, an IC50 [5] of 0.562 nM and a viability, T/C [16] of 102%. It also gave a viability, T/C [17] of 26.4%, a viability, T/C [18] of 1.52% and a viability, T/C [19] of 0.94%. The viability, T/C [6] was 1.06%, the viability, T/C [7] was 1.23% and the viability, T/C [20] was 86.6%. The viability, T/C [21] was 19.5%, the viability, T/C [22] was 0.94% and the viability, T/C [23] was 1.12%. It also gave a viability, T/C [8] of 1%, a viability, T/C [9] of 0.68% and a viability, T/C [24] of 94.1%. It also gave a viability, T/C [25] of 22.2%, a viability, T/C [26] of 0.63% and a viability, T/C [27] of 1.08%. The viability, T/C [10] was 1.55%, the viability, T/C [11] was 0.88% and the viability, T/C [28] was 91.9%. It also gave a viability, T/C [29] of 24.5%, a viability, T/C [30] of 1.11% and a viability, T/C [31] of 1%. It also gave a viability, T/C [12] of 0.77%, a viability, T/C [13] of 1.37% and a viability, T/C [32] of 83.9%. It also gave a viability, T/C [33] of 16.1%, a viability, T/C [34] of 1.08% and a viability, T/C [35] of 0.25%. For the same compound, the viability, T/C [14] was 1.63% and the viability, T/C [15] was 2.35%.
